Reference: patent US12611400B2, “Solid lipid nano-composition containing berberine and cinnamonaldehyde effective in treating diabetes, dyslipidemia, and method of preparing the same” (priority 2020, dated 2026)

System: white mouse models of P-407-induced dyslipidemia
Assay: Dyslipidemia regulation effects in P-407-induced endogenous dyslipidemia model in white mice
Assay type: in vivo
Settings: oral 100 mg/kg, 7 days; for Total cholesterol: Reduction in comparison with the model batch: 100 mg/kg
Method: The test on white mice was divided into 5 batches, each batch having 10 animals. The batches were subjected to injection and oral administration as follows: • Batch 1 (biological control): 0.9% saline was intraperitoneally injected at a volume of 0.1 mL/10 g mouse body weight and 0.2 mL/10 g distilled water was orally administered. • Batch 2 (model): 2% P-407 solution was intraperitoneally injected at 200 mg/kg (0.1 mL/10 g), and 0.2 mL/10 g distilled water was orally administered. • Batch 3 (positive control): 2% P-407 solution was intraperitoneally injected at 200 mg/kg (0.1 mL/10 g), and 100 mg/kg (0.2 mL/10 g) atorvastatin was orally administered. • Batch 4: 2% P-407 solution was intraperitoneally injected at 200 mg/kg (0.1 mL/10 g), the composition was orally administered at 0.24 g/kg/day (equivalent to the clinical intended dose), at 0.2 mL/10 g. • Batch 5: 2% P-407 solution was intraperitoneally injected at 200 mg/kg dose (0.1 mL/10 g), the composition was orally administered at dosage 0.72 g/kg/day (3 times as much as the clinical intended dose), at 0.2 mL/10 g.
White mice were subjected to oral administration of distilled water and the sample drug in 7 continuous days before the intraperitoneal injection with P-407 solution. After P-407 injection, the mice were left to starve completely but were free to drink water. After 24 hours from the P-407 injection, all of the mice received carotid arterial blood sampling for TG, TC, and HDL-C quantitative testing. Non-HDL-C levels were calculated based on the following formula: Non-HDL-C=TC−HDL-C (mmol/L) Test Results Total Cholesterol Levels

[1] = white mouse blood, 24 h after P-407 200 mg/kg i.p., n = 10

CC(C)c1c(C(=O)Nc2ccccc2)c(-c2ccccc2)c(-c2ccc(F)cc2)n1CC[C@@H](O)C[C@@H](O)CC(=O)O [Atorvastatin, atorvastatin]
Non-HDL-cholesterol level (Non-HDL-C=TC−HDL-C, white mouse blood, 24 h after P-407, n = 10): 6.08 ± 0.88 mmol/L
Non-HDL-cholesterol: Reduction in comparison with the model (P-407 model): 12.1%
Total cholesterol: Reduction in comparison with the model batch (P-407 model): 5.7%
HDL-C level change versus model batch (↑ increase) (P-407 model, given with ↑): (↑ 19.1%)
Total cholesterol: Reduction in comparison with the model batch (P-407 model, listed as atorvastatin): 5.7%
Triglyceride: Reduction in comparison with the model batch (P-407 model, negative = increase): −46.3%
HDL-C level [1]: 2.12 ± 0.41 mmol/L
Total cholesterol level [1]: 8.20 ± 1.01 mmol/L
Triglyceride level [1]: 9.77 ± 1.05 mmol/L
